Test results: PubChem BioAssay AID1259411 (Chemical Carcinogenesis Research Information System (CCRIS), 2018)
Active and inactive are the calls of the source. No rule for the calls is given here.

System: rodent carcinogenicity bioassays, tumor incidence
Assay: CCRIS carcinogenicity studies
Details: Dose: 0, Dose: 0
Method in brief: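 NCI-built, expert-reviewed records of carcinogenicity and related test outcomes (mutagenicity, tumor promotion/inhibition) compiled from published and report sources, historical span 1985-2011, not updated.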

Compound: CNC(=O)N(C)N=O
- carcinogen call (Species: RAT, Strain/Sex: F344/FEMALE, Route: GAVAGE, 20, 40 UMOL/WK IN CORN OIL/ETHYL ACETATE (2: 1) FOR 30 WK FOR TOTAL DOSES OF 0, 0.6, 1.2 MMOL (STUDY DURATION: LIFETI, 20, 40 UMOL/WK IN CORN OIL/ETHYL ACETATE (2: 1) FOR 30 WK FOR TOTAL DOSES OF 0, 0.6, 1.2 MMOL (STUDY DURATION: LIFETI, Tumor Site: Type of Lesion: NERVOUS SYSTEM: TUMOR): active; positive
- carcinogen call (Species: RAT, Strain/Sex: F344/FEMALE, Route: INTRAVESICULAR, 2.4 MG 2/WK FOR 30 WK (STUDY DURATION: LIFETIME), Tumor Site: Type of Lesion: BRAIN: TUMOR, KIDNEY: TUMOR): active; positive
- carcinogen call (Species: RAT, Strain/Sex: F344/FEMALE, Route: ORAL, 20, 40 UMOL/WK IN DRINKING WATER FOR 30 WK FOR TOTAL DOSES OF 0, 0.6, 1.2 MMOL (STUDY DURATION: LIFETIME), 20, 40 UMOL/WK IN DRINKING WATER FOR 30 WK FOR TOTAL DOSES OF 0, 0.6, 1.2 MMOL (STUDY DURATION: LIFETIME), Tumor Site: Type of Lesion: UTERUS: TUMOR, THYROID: FOLLICULAR CELL TUMOR, NERVOUS SYSTEM: TUMOR, Tumor Site: Type of Lesion: UTERUS: TUMOR, THYROID: FOLLICULAR CELL TUMOR, NERVOUS SYSTEM: TUMOR): active; positive
- carcinogen call (Species: RAT, Strain/Sex: F344/MALE, Route: GAVAGE, 20, 40 UMOL/WK IN CORN OIL/ETHYL ACETATE (2: 1) FOR 30 WK FOR TOTAL DOSES OF 0, 0.6, 1.2 MMOL (STUDY DURATION: LIFETI, 20, 40 UMOL/WK IN CORN OIL/ETHYL ACETATE (2: 1) FOR 30 WK FOR TOTAL DOSES OF 0, 0.6, 1.2 MMOL (STUDY DURATION: LIFETI, Tumor Site: Type of Lesion: NERVOUS SYSTEM: TUMOR, TESTIS: MESOTHELIOMA): active; positive
- carcinogen call (Species: RAT, Strain/Sex: F344/MALE, Route: ORAL, 20, 40 UMOL/WK IN DRINKING WATER FOR 30 WK FOR TOTAL DOSES OF 0, 0.6, 1.2 MMOL (STUDY DURATION: LIFETIME), 20, 40 UMOL/WK IN DRINKING WATER FOR 30 WK FOR TOTAL DOSES OF 0, 0.6, 1.2 MMOL (STUDY DURATION: LIFETIME), Tumor Site: Type of Lesion: TESTIS: MESOTHELIOMA, NERVOUS SYSTEM: TUMOR): active; positive

Compound: Cc1ccc2c(c1N)C(=O)c1ccccc1C2=O
- carcinogen call (Species: MOUSE, Strain/Sex: B6C3F1/FEMALE, Route: ORAL, 0.06% OF DIET (2 DOSAGE REGIMENS--A & B RECEIVING SAME CONC), TWA, Tumor Site: Type of Lesion: LIVER: HEPATOCELLULAR CARCINOMA, NEOPLASTIC NODULE): active; positive
- carcinogen call (Species: MOUSE, Strain/Sex: B6C3F1/MALE, Route: ORAL, 0.06% OF DIET (2 DOSAGE REGIMENS--A & B RECEIVING SAME CONC), TWA): inactive; negative
- carcinogen call (Species: RAT, Strain/Sex: F344/FEMALE, Route: ORAL, 0.10, 0.20% OF DIET, 0.10, 0.20% OF DIET, Tumor Site: Type of Lesion: LIVER: HEPATOCELLULAR CARCINOMA, NEOPLASTIC NODULE): active; positive
- carcinogen call (Species: RAT, Strain/Sex: F344/MALE, Route: ORAL, 0.10, 0.20% OF DIET, 0.10, 0.20% OF DIET, Tumor Site: Type of Lesion: LIVER: HEPATOCELLULAR CARCINOMA, NEOPLASTIC NODULE, KIDNEY: TUBULAR CELL ADENOMA, TUBULAR CELL ADENOCARCINOMA, ADENOCARC): active; positive

Compound: FC(F)(Cl)Cl
- carcinogen call (Species: MOUSE, Strain/Sex: SWISS/FEMALE, Route: INHALATION, 1000, 5000 PPM 4 HR/D 5 D/WK FOR 78 WK (STUDY DURATION: LIFETIME), 1000, 5000 PPM 4 HR/D 5 D/WK FOR 78 WK (STUDY DURATION: LIFETIME)): inactive; negative
- carcinogen call (Species: MOUSE, Strain/Sex: SWISS/MALE, Route: INHALATION, 1000, 5000 PPM 4 HR/D 5 D/WK FOR 78 WK (STUDY DURATION: LIFETIME), 1000, 5000 PPM 4 HR/D 5 D/WK FOR 78 WK (STUDY DURATION: LIFETIME)): inactive; negative
- carcinogen call (Species: RAT, Strain/Sex: SPRAGUE-DAWLEY/FEMALE, Route: INHALATION, 1000, 5000 PPM 4 HR/D 5 D/WK FOR 104 WK (STUDY DURATION: LIFETIME), 1000, 5000 PPM 4 HR/D 5 D/WK FOR 104 WK (STUDY DURATION: LIFETIME)): inactive; negative
- carcinogen call (Species: RAT, Strain/Sex: SPRAGUE-DAWLEY/FEMALE, Route: INHALATION, 1000, 5000 PPM IN AIR 4 HR/D 5 D/WK FOR 104 WK (STUDY DURATION: LIFETIME), 1000, 5000 PPM IN AIR 4 HR/D 5 D/WK FOR 104 WK (STUDY DURATION: LIFETIME), Tumor Site: Type of Lesion: [BRAIN WAS ONLY SITE EVALUATED]): inactive; negative
- carcinogen call (Species: RAT, Strain/Sex: SPRAGUE-DAWLEY/MALE, Route: INHALATION, 1000, 5000 PPM 4 HR/D 5 D/WK FOR 104 WK (STUDY DURATION: LIFETIME), 1000, 5000 PPM 4 HR/D 5 D/WK FOR 104 WK (STUDY DURATION: LIFETIME)): inactive; negative
- carcinogen call (Species: RAT, Strain/Sex: SPRAGUE-DAWLEY/MALE, Route: INHALATION, 1000, 5000 PPM IN AIR 4 HR/D 5 D/WK FOR 104 WK (STUDY DURATION: LIFETIME), 1000, 5000 PPM IN AIR 4 HR/D 5 D/WK FOR 104 WK (STUDY DURATION: LIFETIME), Tumor Site: Type of Lesion: [BRAIN WAS ONLY SITE EVALUATED]): inactive; negative

Compound: OC(Cn1cncn1)(Cn1cncn1)c1ccc(F)cc1F
- carcinogen call (Species: RAT, Strain/Sex: SPRAGUE-DAWLEY/FEMALE, Route: ORAL, 2.5, 5, 10 MG/KG IN DIET FOR 24 MO (STUDY DURATION: 24 MO), 2.5, 5, 10 MG/KG IN DIET FOR 24 MO (STUDY DURATION: 24 MO)): inactive; negative
- carcinogen call (Species: RAT, Strain/Sex: SPRAGUE-DAWLEY/MALE, Route: ORAL, 2.5, 5, 10 MG/KG IN DIET FOR 24 MO (STUDY DURATION: 24 MO), 2.5, 5, 10 MG/KG IN DIET FOR 24 MO (STUDY DURATION: 24 MO), Tumor Site: Type of Lesion: LIVER: HEPATOCELLULAR ADENOMA): active; positive

Compound: CCOC(OCC)C(=O)c1ccccc1
- carcinogen call (Species: MOUSE, Strain/Sex: C3H/HEJ/MALE, Route: DERMAL, 11.3 MG AS A 50% DILUTION IN ACETONE 3/WK FOR LIFESPAN (STUDY DURATION: LIFESPAN)): inactive; negative
- carcinogen call (Species: MOUSE, Strain/Sex: C3H/HEJ/MALE, Route: DERMAL, 25 MG UNDILUTED 3/WK FOR LIFESPAN (STUDY DURATION: LIFESPAN)): inactive; negative

Compound: C[C@H](CCC(=O)N(CCS(=O)(=O)O)N=O)[C@H]1CCC2C3C(C[C@H](O)[C@@]21C)[C@@]1(C)CC[C@@H](O)C[C@H]1C[C@H]3O (stereo partly specified)
- carcinogen call (Species: RAT, Strain/Sex: F344/MALE, Route: GAVAGE, 10 MG IN 50 µL DMSO 5 D/WK FOR 6 WK (STUDY DURATION: 108 WK), Tumor Site: Type of Lesion: LIVER: CARCINOMA): active; positive

Compound: O=NN1CC=CC[C@H]1c1cccnc1
- carcinogen call (Species: RAT, Strain/Sex: F344/FEMALE, Route: SUBCUTANEOUS, 1, 3, 9 MMOL/KG BW (TOTAL DOSE) WITH SUBDOSES GIVEN 3/WK FOR 20 WK WITH A 2 WK INTERRUPTION AFTER 7 WK (STUDY DURATIO, 1, 3, 9 MMOL/KG BW (TOTAL DOSE) WITH SUBDOSES GIVEN 3/WK FOR 20 WK WITH A 2 WK INTERRUPTION AFTER 7 WK (STUDY DURATIO): inactive; negative
- carcinogen call (Species: RAT, Strain/Sex: F344/MALE, Route: SUBCUTANEOUS, 1, 3, 9 MMOL/KG BW (TOTAL DOSE) WITH SUBDOSES GIVEN 3/WK FOR 20 WK WITH A 2 WK INTERRUPTION AFTER 7 WK (STUDY DURATIO, 1, 3, 9 MMOL/KG BW (TOTAL DOSE) WITH SUBDOSES GIVEN 3/WK FOR 20 WK WITH A 2 WK INTERRUPTION AFTER 7 WK (STUDY DURATIO): inactive; negative

Compound: Cc1ccc(Cl)cc1N
- carcinogen call (Species: MOUSE, Strain/Sex: B6C3F1/FEMALE, Route: ORAL, 2000, 4000 PPM IN DIET, 2000, 4000 PPM IN DIET, Tumor Site: Type of Lesion: BLOOD VESSELS: HEMANGIOSARCOMA, LIVER: HEPATOCELLULAR ADENOMA OR CARCINOMA): active; positive
- carcinogen call (Species: MOUSE, Strain/Sex: B6C3F1/MALE, Route: ORAL, 2000, 4000 PPM IN DIET, 2000, 4000 PPM IN DIET, Tumor Site: Type of Lesion: BLOOD VESSELS: HEMANGIOSARCOMA, LIVER: HEPATOCELLULAR ADENOMA OR CARCINOMA): active; positive
- carcinogen call (Species: RAT, Strain/Sex: F344/FEMALE, Route: ORAL, 2500, 5000 PPM IN DIET, 2500, 5000 PPM IN DIET): inactive; negative
- carcinogen call (Species: RAT, Strain/Sex: F344/MALE, Route: ORAL, 2500, 5000 PPM IN DIET, 2500, 5000 PPM IN DIET): inactive; negative
